By pKi is commonly meant −log10 of the Ki, conventionally taken in molar units.

Data on 8 compounds can be found in patent US9845292B2 (Max-Planck-Gesellschaft zur Förderung der Wissenschaften …, priority 2013, dated 2017).

One assay relates to N2a neuroblastoma cells. In words: N2a cellular assay (neurite outgrowth). It counts as cell-based. The settings on record: for optimal concentration for enhancement of neurite outgrowth: U-shaped dose-dependency, N2a-cells; for effect of high concentrations on neuronal differentiation: FIG. 1A, 1D; for enhancement of neurite outgrowth of N2a cells: compared to unselective FKBP ligand FK506, FIG. 1. As for the experimental part: At day one N2a cells were plated into 24-well plates with cover slips (pretreated with polylysine) at a density of 35,000 cells/well and cultured with DMEM (incl. FCS 10% and Pen/Strep 1%) for 24 h. Next, cells were transfected with 80 ng expression plasmids encoding Venus as well as 720 ng pRK5 (mock transfection) in a total volume of 500 μl starvation media containing different concentrations of compounds or DMSO for 36 h (media without FCS; induction of neurite outgrowth). Therefore media was removed and replaced by 400 μl DMEM (empty). Next an equivalent volume of plasmids were given to 50 μl OPTIMEM and incubated for 5 min at RT. Additionally 1.5 μl Lipofectamine 2000 was separately dissolved in 50 μl OPTIMEM. After 5 min both solutions (plasmids and Lipofactamine 2000 containing media) were combined and incubated again for another 20 min. After that 100 μl of this mixture was given to 400 μl media per well. (See also protocol of the provider—Life Technologies).
On the next day cells were washed with PBS and incubated for 30 min with 300 μl PFA (4%) and sucrose (5%) to fix cells. After fixation cells were washed three times, mounted onto microscope slides using 4 μl Vectashield (mounting media) and analyzed by fluorescence microscopy. Each bar represents the mean of the neurite length of 30-50 cells after the indicated treatment (FIGS. 1-2).

Another assay deals with T1, FKBP52 (Homo sapiens, UniProt Q02790).
T1 construct: Purified FK1-domains of FKBP51WT (4.5 nM) with F4 (3 nM), FKBP52WT (400 nM) with F2 (20 nM); implied by Ni-NTA purification) (N); made in house; host or cells: E. coli BL21(DE3)pLysS
T1 sequence (Q02790 50-138 limits assumed): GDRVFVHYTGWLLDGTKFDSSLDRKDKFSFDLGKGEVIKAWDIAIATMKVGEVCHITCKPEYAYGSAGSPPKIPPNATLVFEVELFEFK
Put plainly: Fluorescence polarization binding assay, FK1-domain of FKBP52WT with tracer F2 (selectivity FKBP51 vs. FKBP52). The conditions noted are these: selectivity factor over FKBP52. The procedure, abridged: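 Compounds titrated against FK1 domain of FKBP52 WT with fluorescent tracer F2, in duplicate; competition curves fitted to four-parameter logistic for IC50. Ki derived from exact competitive-binding equation using tracer Kd; selectivity expressed as Ki(FKBP51)/Ki(FKBP52).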
In general terms: Fluorescence polarisation rises when a labelled molecule tumbles more slowly, as on binding a larger partner.

For assay [1], the target named is T2, FKBP51 (Homo sapiens, UniProt Q13451).
T2 sequence (Q13451 42-130 limits assumed): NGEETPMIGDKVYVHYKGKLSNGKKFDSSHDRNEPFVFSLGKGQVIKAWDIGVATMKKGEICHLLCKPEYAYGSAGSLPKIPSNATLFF
In words: Fluorescence polarization binding assay, FK1-domain of FKBP51WT with tracer F4. Further details: Purified FK1-domains of FKBP51WT (4.5 nM) with F4 (3 nM), FKBP52WT (400 nM) with F2 (20 nM); made in house; host or cells: E. coli BL21(DE3)pLysS. The procedure, abridged: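 Competitive fluorescence polarization with tracer F4 and FKBP51 FK1 domain (wild type), compounds titrated by serial dilution from DMSO stock, run in duplicate. IC50 from four-parameter logistic fit; inhibition constants from an exact competitive-binding equation using tracer and inhibitor Kd values.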

The test system of the next assay is C57Bl/6N mice. In words: Forced swim test (FST). The class given is in vivo. The settings on record: FIG. 2D. The procedure:
For the forced swim test (FST), male C57Bl/6N mice at the age of 12 weeks were single housed and acclimated to the room for 2 weeks before the experiment. […] The next morning, mice were subjected to a FST to assess stress-coping behavior. Each mouse was put into a 2 l glass beaker for 6 min and analyzed using an automated video-tracking system (Anymaze 4.20, Stoelting, Ill., USA). Time spent immobile (floating) and time spent struggling was scored by an experienced observer, blind to treatment or condition of the animals.

The subject of a further assay is C57BL/6 mice. In words: Combined Dex/CRH test (neuroendocrine analysis, plasma CORT). It counts as in vivo. The conditions noted are these: 20 mg/kg i.p.; FIG. 2E. As for the experimental part: Briefly, a reference blood sample was collected by an incision in the ventral tail vessel at 1500, three days prior to the actual test (‘untreated’ value). […] The injected volume was 0.3 ml for each injection. At 1500, a second blood sample was drawn from the tail vessel (‘after Dex’ value), immediately followed by an i.p. injection of CRH (0.15 mg/kg). Thirty minutes later, the mice were sacrificed and trunk blood was collected (‘after CRH’ value).

The target of assay [2] is T2, FKBP51. Put plainly: Fluorescence polarization binding assay, FK1-domain of FKBP51WT with tracer F4. Further details: Purified FK1-domains of FKBP51WT (4.5 nM) with F4 (3 nM), FKBP52WT (400 nM) with F2 (20 nM); implied by Ni-NTA purification) (N); made in house; host or cells: E. coli BL21(DE3)pLysS. The conditions noted are these: compounds B01-C25; read-out: Affinity(Ki) for FKBP51. The procedure: The target protein was also diluted in this assay buffer at double the highest concentration required for the final sample. This protein stock was used for a 1:1 serial dilution.
The inventive compound was dissolved in DMSO to reach a 100-times concentrated stock solution. This was used for a 1:1 serial dilution in DMSO.
For FKBP12, −51, and −52 the binding assays were performed in duplicates in the plate format.
The competition curves were analyzed by using SigmaPlot9. Data were fitted to a four parameter logistic curve to deduce the IC50 values. […]
Inhibition constants were measured in a fluorescence polarization binding assay by titrating the compounds.

The mark [3] stands for this setting: FKBP52WT (400 nM) with F2 (20 nM), A series.

pKi: −log10 of the molar value. Entries after “also recorded” stand apart in the source; their conditions may differ. Like-named read-outs stand apart in the source and are kept apart here.

For `C[C@]12CCC(=O)C=C1CC[C@@H]1[C@@H]2[C@@H](O)C[C@]2(C=O)[C@@H](C(=O)CO)CC[C@@H]12` [Aldosterone, reference compound], the “optimal concentration for enhancement of neurite outgrowth” value in the assay on N2a neuroblastoma cells stood at 100 nM.

For the compound `COc1ccc(CC[C@@H](OC(=O)[C@@H]2CCCCN2C(=O)[C@H](c2cc(OC)c(OC)c(OC)c2)C2CCCCC2)c2cccc(OCC(=O)O)c2)cc1OC` [Compound A17, 2-(3-((R)-1-(((S)-1-((S)-2-Cyclohexyl-2-(3,4,5-trimethoxyphenyl)acetyl)piperidine-2-carbonyl)oxy)-3-(3,4-dimethoxyphenyl)propyl)phenoxy)acetic acid], at FKBP52 (setting [3]), the “Ki(FKBP51)/Ki(FKBP52)” value is given as “++++ (>5000 ++++)”. Moreover, the “rescue of reduced neurite length triggered by Ru26988” value in the assay with N2a neuroblastoma cells (1 μM Ru26988, 10 nM A17, FIG. 2A, 2B) is on record as “rescues reduced neurite length”. Also, in the assay with N2a neuroblastoma cells (1 μM aldosterone or 1 μM RU26988, FIG. 2A-2C), the “protection of neurite outgrowth from the suppressing effect of high steroid concentrations” value is given as “able to protect the neutrite outgrowth of N2a from the suppressing effect of high steroid concentrations”. For the same compound, in the assay on N2a neuroblastoma cells, the “effect of high concentrations on neuronal differentiation” value is listed as “do not lead to reduction of the neuronal differentiation” and the “enhancement of neurite outgrowth of N2a cells” value is listed as “stronger enhancement of neurite outgrowth; also recorded: promote neurite outgrowth in N2a cells more potently compared to FK506”. The “rescue of reduction of neurite outgrowth triggered by aldosterone” value in the assay with N2a neuroblastoma cells (aldosterone 1 μM, FIG. 2B, 2C) is “reverts the reduction of neurite outgrowth”. This compound gave a pKi on FKBP51 [1] above 7.00.

`COc1ccc(CC[C@@H](OC(=O)[C@@H]2CCCCN2C(=O)[C@H](c2cc(OC)c(OC)c(OC)c2)C2CCCCC2)c2cccc(OCCN3CCOCC3)c2)cc1OC` [Compound A18]: in the assay with N2a neuroblastoma cells, the “effect of high concentrations on neuronal differentiation” value is recorded as “do not lead to reduction of the neuronal differentiation” and the “enhancement of neurite outgrowth of N2a cells” value is on record as “stronger enhancement of neurite outgrowth; also recorded: promote neurite outgrowth in N2a cells more potently compared to FK506”. In the assay with C57Bl/6N mice (20.0 mg/kg), the “floating time in forced swim test” value was “reduced floating time” and the “struggling time in forced swim test” value is “enhanced struggling time”. For the same compound, in the assay with C57Bl/6N mice (single injection 20.0 mg/kg, 16 hours prior to testing), the “stress-coping behavior in the Forced Swim Test” value was “elicited a more active stress-coping behavior”. In the assay on C57BL/6 mice, the “regulation of stress hormone secretion” value was “enhances the regulation of stress hormone secretion”.

Turning to `COc1cc([C@@H](C(=O)N2CCCC[C@H]2C(=O)OCCCO)C2CCCCC2)cc(OC)c1OC` [Compound C22], on FKBP51 [2], the pKi was 5.00 to 6.00. For the same compound, at FKBP52 (compounds B01-C25), the “Ki(FKBP51)/Ki(FKBP52)” value was “+++ (>500 +++)”.

Consider `COc1cc([C@@H](C(=O)N2CCCC[C@H]2C(=O)OC(C)CO)C2CCCCC2)cc(OC)c1OC` (stereo partly shown) [Compound C25], for which the pKi at FKBP51 [2] was 5.00 to 6.00. Moreover, the “Ki(FKBP51)/Ki(FKBP52)” value at FKBP52 (compounds B01-C25) was “++ (>50 ++)”.

As to `C=CC[C@@H]1/C=C(\C)C[C@H](C)C[C@H](OC)[C@H]2O[C@@](O)(C(=O)C(=O)N3CCCC[C@H]3C(=O)O[C@H](/C(C)=C/[C@@H]3CC[C@@H](O)[C@H](OC)C3)[C@H](C)[C@@H](O)CC1=O)[C@H](C)C[C@@H]2OC` [FK506, reference compound], the “concentrations at which the neurite outgrowth stimulating effect is lost” value with N2a neuroblastoma cells (FIG. 1B) lay within 300 to 1000 nM.

With `COc1ccc(CC[C@@H](OC(=O)[C@@H]2CCCCN2C(=O)[C@@H](CC2CC2)c2cc(OC)c(OC)c(OC)c2)c2cccc(OCC(=O)O)c2)cc1OC` [Reference A07, 2-(3-((R)-1-(((S)-1-((S)-3-cyclopropyl-2-(3,4,5-trimethoxyphenyl)propanoyl)piperidine-2-carbonyl)oxy)-3-(3,4-dimethoxyphenyl)propyl)phenoxy)acetic acid], the “Ki(FKBP51)/Ki(FKBP52)” value at FKBP52 (setting [3]) is on record as “not selective (<5 not selective)”. Moreover, on FKBP51 [1] (FK1-domain of FKBP51WT (4.5 nM) with F4 (3 nM), A series, read-out: Affinity(Ki) for FKBP51), the pKi is 4.30 to 5.00.

In the case of `CC#C[C@]1(O)CC[C@H]2[C@@H]3C=CC4=CC(=O)C=C[C@]4(C)[C@H]3[C@@H](O)C[C@@]21C` [Ru26988, RU26988, reference compound], the “optimal concentration for enhancement of neurite outgrowth” value with N2a neuroblastoma cells was 100 nM.
